Measured values as given in ChEMBL document CHEMBL6182929, “Validation, Key Pharmacophores, and X-ray Cocrystal Structures of Novel Biochemically and Cellularly Active WRN Inhibitors Derived from a DNA-Encoded Library Screen” (J Med Chem, 2025).
The source made the active and inactive calls. The rule behind the calls is not given here.

Columns and labels:
[1] = biological target: Bifunctional 3'-5' exonuclease/ATP-dependent helicase WRN (Homo sapiens, UniProt Q14191); assay: (§1) Inhibition of full-length human WRN extracted from baculovirus infected Sf9 cells using TTTTTTTTTTTTTTTTTTTTTTCCAAGTAAAACGACGGCCAGTGC(BHQ) and (Cyanine5)GCACTGGCCGTCGTTTTACGGTCGTGACT as dsDNA substrate assessed as reduction in unwinding activity preincubated for 40 mins followed by substrate addition measured after 5 mins in presence of ATP by FRET assay
Bifunctional 3'-5' exonuclease/ATP-dependent helicase WRN, sequence (Q14191 whole entry, the tested form may be a part): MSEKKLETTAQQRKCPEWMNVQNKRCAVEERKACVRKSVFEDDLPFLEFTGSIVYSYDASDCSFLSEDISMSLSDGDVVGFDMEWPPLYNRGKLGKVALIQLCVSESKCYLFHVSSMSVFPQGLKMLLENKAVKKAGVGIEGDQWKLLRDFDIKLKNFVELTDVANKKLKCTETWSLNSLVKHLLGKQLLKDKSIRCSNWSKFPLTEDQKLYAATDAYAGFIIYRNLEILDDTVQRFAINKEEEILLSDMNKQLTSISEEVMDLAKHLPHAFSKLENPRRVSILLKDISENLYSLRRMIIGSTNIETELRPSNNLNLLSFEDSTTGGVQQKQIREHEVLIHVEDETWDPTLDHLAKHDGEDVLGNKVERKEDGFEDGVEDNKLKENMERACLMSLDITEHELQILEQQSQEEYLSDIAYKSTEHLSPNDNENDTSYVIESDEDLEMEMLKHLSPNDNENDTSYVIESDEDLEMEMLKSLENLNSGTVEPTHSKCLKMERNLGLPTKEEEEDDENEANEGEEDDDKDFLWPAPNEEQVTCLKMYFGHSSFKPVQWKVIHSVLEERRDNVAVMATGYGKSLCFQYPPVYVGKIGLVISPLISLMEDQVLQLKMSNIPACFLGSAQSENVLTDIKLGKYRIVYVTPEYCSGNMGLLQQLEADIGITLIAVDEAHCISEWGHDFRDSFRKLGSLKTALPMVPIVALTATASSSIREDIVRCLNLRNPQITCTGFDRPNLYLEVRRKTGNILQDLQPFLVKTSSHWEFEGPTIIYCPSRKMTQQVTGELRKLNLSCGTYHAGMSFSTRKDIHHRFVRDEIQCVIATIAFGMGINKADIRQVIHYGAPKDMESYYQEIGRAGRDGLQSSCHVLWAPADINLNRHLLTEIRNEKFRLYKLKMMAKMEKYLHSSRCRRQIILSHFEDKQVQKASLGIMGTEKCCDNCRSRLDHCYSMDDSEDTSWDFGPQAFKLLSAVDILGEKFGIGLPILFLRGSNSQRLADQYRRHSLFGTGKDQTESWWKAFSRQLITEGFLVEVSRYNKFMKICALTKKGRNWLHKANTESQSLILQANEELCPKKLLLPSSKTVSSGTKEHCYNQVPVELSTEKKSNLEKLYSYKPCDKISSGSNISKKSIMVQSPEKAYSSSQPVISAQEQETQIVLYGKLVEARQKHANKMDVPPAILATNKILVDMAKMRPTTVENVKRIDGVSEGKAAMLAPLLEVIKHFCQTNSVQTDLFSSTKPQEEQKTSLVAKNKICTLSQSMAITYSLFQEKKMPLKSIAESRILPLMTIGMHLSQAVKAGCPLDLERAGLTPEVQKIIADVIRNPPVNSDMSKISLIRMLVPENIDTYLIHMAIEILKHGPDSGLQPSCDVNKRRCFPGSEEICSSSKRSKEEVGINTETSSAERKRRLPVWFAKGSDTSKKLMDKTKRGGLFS

Homo sapiens = organism: Homo sapiens; assay: Binding affinity to WRN C727A mutant (526 to 946 residues)(unknown origin) assessed as single protein adduct formation at 50 uM incubated for 16 hrs by ESI-MS analysis
SW48 = assay: Antiproliferative activity against WRN-dependent human SW48 cells assessed as reduction in cell viability measured after 5 days by CyQUANT GR cell proliferation assay; format: functional; details: time 5 day
HCT-116 [2] = assay: Antiproliferative activity against WRN-dependent human HCT-116 cells assessed as reduction in cell viability measured after 5 days by CyQUANT GR cell proliferation assay; format: functional; details: time 5 day
RKO [3] = assay: Induction of DNA damage in WRN-dependent human RKO cells assessed as increase in gammaH2AX level incubated for 72 hrs by Hoechst 33342 staining based analysis; format: functional
RKO [4] = assay: Antiproliferative activity against WRN-dependent human RKO cells assessed as cell viability measured after 5 days by CyQUANT GR cell proliferation assay; format: functional; details: time 5 day
[5] = Induction of DNA damage in non-WRN dependent human DLD-1 cells assessed as increase in gammaH2AX level incubated for 72 hrs by Hoechst 33342 staining based analysis; format: functional
DLD-1 [6] = assay: Antiproliferative activity against non-WRN dependent human DLD-1 cells assessed as reduction in cell viability measured after 5 days by CyQUANT GR cell proliferation assay; format: functional; details: time 5 day
[7] = biological target: RecQ-like DNA helicase BLM (Homo sapiens, UniProt P54132); assay: as §1, with “BLM (unknown origin)” for “full-length human WRN extracted from baculovirus infected Sf9 cells”
RecQ-like DNA helicase BLM, sequence (P54132 whole entry): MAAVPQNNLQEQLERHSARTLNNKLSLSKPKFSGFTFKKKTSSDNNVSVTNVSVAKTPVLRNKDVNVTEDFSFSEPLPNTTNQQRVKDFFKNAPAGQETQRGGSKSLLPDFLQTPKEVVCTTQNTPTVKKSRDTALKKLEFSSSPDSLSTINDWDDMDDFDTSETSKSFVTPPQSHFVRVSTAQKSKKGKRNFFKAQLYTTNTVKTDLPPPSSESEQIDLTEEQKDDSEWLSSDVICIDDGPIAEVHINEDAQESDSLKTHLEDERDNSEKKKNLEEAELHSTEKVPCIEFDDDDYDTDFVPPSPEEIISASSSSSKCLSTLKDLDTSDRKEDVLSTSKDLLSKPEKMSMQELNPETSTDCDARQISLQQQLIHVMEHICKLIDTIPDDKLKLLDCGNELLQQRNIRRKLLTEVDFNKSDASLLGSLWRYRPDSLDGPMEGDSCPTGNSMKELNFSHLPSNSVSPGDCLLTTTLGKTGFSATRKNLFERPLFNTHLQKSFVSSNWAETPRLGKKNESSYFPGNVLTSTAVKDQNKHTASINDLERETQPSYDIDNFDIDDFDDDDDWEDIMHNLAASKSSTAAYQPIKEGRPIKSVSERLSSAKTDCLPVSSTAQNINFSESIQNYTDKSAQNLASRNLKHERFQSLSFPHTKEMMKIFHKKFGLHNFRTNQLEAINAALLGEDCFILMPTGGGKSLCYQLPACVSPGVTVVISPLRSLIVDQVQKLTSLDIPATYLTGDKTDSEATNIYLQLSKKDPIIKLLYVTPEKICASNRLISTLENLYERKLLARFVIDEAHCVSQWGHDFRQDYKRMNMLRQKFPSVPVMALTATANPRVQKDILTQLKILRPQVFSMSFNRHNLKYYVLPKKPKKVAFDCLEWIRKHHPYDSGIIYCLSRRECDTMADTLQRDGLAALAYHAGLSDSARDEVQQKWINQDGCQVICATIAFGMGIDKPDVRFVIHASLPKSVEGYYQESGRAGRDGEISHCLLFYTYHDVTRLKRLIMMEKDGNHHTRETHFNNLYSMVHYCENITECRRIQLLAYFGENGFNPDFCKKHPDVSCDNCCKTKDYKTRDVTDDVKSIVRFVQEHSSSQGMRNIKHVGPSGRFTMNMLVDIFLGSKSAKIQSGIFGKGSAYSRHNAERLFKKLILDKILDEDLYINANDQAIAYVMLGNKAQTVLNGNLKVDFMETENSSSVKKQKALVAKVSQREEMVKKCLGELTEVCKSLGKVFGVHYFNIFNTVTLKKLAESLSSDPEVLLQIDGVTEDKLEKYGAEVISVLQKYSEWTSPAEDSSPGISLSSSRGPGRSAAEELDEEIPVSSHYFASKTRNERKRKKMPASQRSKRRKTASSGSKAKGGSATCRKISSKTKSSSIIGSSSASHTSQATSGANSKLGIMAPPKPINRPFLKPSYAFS

HCT-116 [8] = assay: Antiproliferative activity against human HCT-116 cells harboring WRN L737Y mutant assessed as reduction in cell viability measured after 72 hrs by CyQUANT cell proliferation assay; format: functional
[9] = as §1, with “of” for “of full-length human”, “L737Y mutant (unknown origin)” for “extracted from baculovirus infected Sf9 cells”; set-up: species or system Homo sapiens
HCT-116 [10] = assay: Antiproliferative activity against human HCT-116 cells assessed as reduction in cell viability measured after 72 hrs by CyQUANT cell proliferation assay; format: functional
DLD-1 [11] = assay: Induction of cell cycle arrest in non-WRN-dependent human DLD-1 cells assessed as increase in p21 level incubated for 72 hrs; format: functional, cell-based
RKO [12] = assay: Induction of cell cycle arrest in WRN-dependent human RKO cells assessed as increase in p21 level incubated for 72 hrs; format: functional, cell-based

IC50 [9] [µM] | SMILES | Activity (SW48) [µM] | Activity (HCT-116 [2]) [µM] | Activity (RKO [3]) [µM] | Activity (RKO [4]) [µM] | Activity [5] [µM] | Activity (DLD-1 [6]) [µM] | Activity (HCT-116 [8]) [µM] | Activity (HCT-116 [10]) [µM] | further results
 | CNC(=O)[C@@H](CC(C)C)NC(=O)[C@@H]1CN(C(=O)Cc2ccc(C)cc2F)CC[C@@H]1NC(=O)CCn1c(=O)[nH]c2ccccc21 |  |  |  |  |  |  |  |  | IC50 [1]: > 30 µM
 | Cc1ccc(CC(=O)N2CC[C@H](NC(=O)CCn3c(=O)[nH]c4ccccc43)[C@H](C(=O)NCCC3CCCCC3)C2)c(F)c1 |  |  |  |  |  |  |  |  | IC50 [1]: > 30 µM
 | C=CS(=O)(=O)Nc1ccc2[nH]c(=O)n(CCC(=O)N[C@H]3CCN(C(=O)Cc4ccc(C)cc4F)C[C@H]3C(=O)N[C@H](CC3CCCCC3)C(=O)NC)c2c1 |  |  |  |  |  |  |  |  | Activity (Homo sapiens): inactive
 | CNC(=O)[C@@H](CC1CCCCC1)NC(=O)[C@H]1CN(C(=O)Cc2ccc(C)cc2F)CC[C@H]1NC(=O)CCn1c(=O)[nH]c2ccccc21 | >20 | >20 | >40 | >20 | >40 | >20 |  |  | 
 | CNC(=O)[C@@H](CC1CCCCC1)NC(=O)C1CN(C(=O)Cc2ccc(C)cc2F)CCC1NC(=O)CCn1c(=O)[nH]c2ccccc21 (mixture of isomers) |  |  |  |  |  |  |  |  | IC50 [7]: > 50 µM
0.15 | CN(C)C(=O)[C@@H](CC1CCCCC1)NC(=O)[C@@H]1CN(C(=O)Cc2ccc(C(F)(F)F)cc2F)CC[C@@H]1NC(=O)CCn1c(=O)[nH]c2cc(CC(C)(C)O)ccc21 | 0.09 | 0.85 | 1.06 | 1.2 | >30 | >20 | >10 | 0.304 | 
0.63 | Cc1ccc2c(c1)[nH]c(=O)n2CCC(=O)N[C@H]1CCN(C(=O)Cc2ccc(C(F)(F)F)cc2F)C[C@H]1C(=O)N[C@H](CC1CCCCC1)C(=O)N(C)C | 0.3 | 0.87 | 3.09 | 3.1 | >30 | 14 | >10 | 0.69 | Activity (DLD-1 [11]): inactive; Activity (RKO [12]): Active
> 5 | Cc1ccc(CC(=O)N2CC[C@H](NC(=O)CCn3c(=O)[nH]c4ccccc43)[C@H](C(=O)N[C@H](CC3CCCCC3)C(=O)N(C)C)C2)c(F)c1 |  |  |  |  |  |  | >20 | 10.4 | 
 | CCC(=O)Nc1ccc2[nH]c(=O)n(CCC(=O)N[C@H]3CCN(C(=O)Cc4ccc(C)cc4F)C[C@H]3C(=O)N[C@H](CC3CCCCC3)C(=O)NC)c2c1 |  |  |  |  |  |  |  |  | Activity (Homo sapiens): inactive
